Test results: patent US5538950A, “Endothelin antagonists and their preparation” (Fujisawa Pharmaceutical Co., Ltd., priority 1991, dated 1996)
Where a name gives a salt, the structure may show the parent alone.

Test system: endothelin receptor (crude receptor membrane preparation of porcine aorta)
Assay: Radioligand binding assay: 125I-endothelin-1 binding to porcine aorta membrane
Conditions: ^125 I-Endothelin-1 1.67×10^-11 M, room temperature, 60 minutes, read-out: Effect on specific binding of ^125 I-endothelin-1 in porcine aorta membrane, IC50
Description: Radioligand binding assay:
(a) Crude receptor membrane preparation:
Porcine aorta was purchased from Pel-Freez Biologicals (U.S.A.) and stored at -80° C. until use.
Porcine aorta (50 g) was thawed and dissected free from fatty tissue, minced with scissors and then homogenized with a polytron (Brinkmann PT-20, maximal speed for 3×10 sec) in 100 ml buffer (0.25M sucrose, 10 mM Tris-HCl, 0.1 mM EDTA).
The homogenate was centrifuged at 10,000 g for 20 minutes at 4° C.
The supernatant, containing the plasma membrane fraction, was centrifuged at 100,000 g for 60 minutes at 4° C., and then resultant pellets were referred to as crude membrane fractions.
The pellets were resuspended in 25 ml of binding assay buffer (50 mM Tris-HCl, 100 mM NaCl, 5 mM MgCl2, 1.5 μg/ml phenylmethylsulfonyl fluoride (PMSF), 120 μg/ml bacitracin, 12 μg/ml leupepcin, 6 μg/ml chymostain, 0.1% bovine serum albumin (BSA), pH 7.5).
The aorta membrane fractions were stored at -80° C. until use.
(b) ^125 I-endothelin-1 binding assay: […]
After incubation, the incubation mixture were filtered through Glass-fiber GF/C filter (pretreated with 0.1% polyethylene imine for 3 hours prior to use) using cell harvester (Brandel M-24S). […] The filters were counted in a gamma counter (Packard Auto Gamma Model 5650).

`CC(C)C[C@H](CC(=O)N1CCCCC1)C(=O)N[C@H](Cc1cn(C)c2ccccc12)C(=O)N[C@H](Cc1ccccn1)C(N)=O` [Compound A, [(2R)-2-(Piperidinocarbonyl)methyl-4-methylvaleryl]-D-TrP(Me)-D-Pya-NH2 hydrochloride] gave an IC50 of 5.2 nM.
